Experimental data published in paper PMC7842926, “Synergistic effect and ultrastructural changes in Trypanosoma cruzi caused by isoobtusilactone A in short exposure of time” (PLoS ONE, 2021).
Like-named read-outs stand apart in the source and are kept apart here. Where a SMILES comes first, the peptide text is derived from it. The star is where a group is joined. Cbz = O=C(OCc1ccccc1)*

How the values were obtained:
[1] = system: trypomastigotes; conditions: period of treatment 24 h; read-out: IC50 against trypomastigotes; cited from earlier work
[2] = system: amastigote forms; conditions: longer treatment periods; read-out: activity against amastigote forms; cited from earlier work
[3] = system: T. cruzi; conditions: cited from earlier work
[4] = system: amastigotes of T. cruzi (Dm28c); experiment: Antiproliferative assay on intracellular amastigotes in Vero host cells; type: cell-based, Trypanosoma cruzi; conditions: for IC50: Trypanosoma cruzi, Vero, 24 hours of treatment, confidence interval in brackets, read-out: Amastigotes (Dm28c) IC50 (CI)
Experimental: To determine the antiproliferative effect of butanolides on intracellular amastigote forms (Dm28c), Vero cells were used as host cells. Vero cells were cultured in DMEM and maintained in a CO2 atmosphere at 37°C.
After 4 h of incubation for adherence and infection, the cells were washed with 1x phosphate buffered saline (PBS) and then incubated in DMEM for 20 h to allow differentiation of internalized trypomastigotes into amastigotes.
Vero cells infected with amastigotes were incubated for 4 or 24 h with the compounds (4 concentrations within the range 4–200 μM) in DMEM. After incubation, the cells were washed, fixed in methanol, stained with 4',6-Diamidino-2-phenylindole (DAPI), and photographed using Leica DMI 6000-B fluorescence microscope. The photos obtained were analyzed using the software ImageJ version 1.5 for quantification of total Vero cells and determination of the percentage of infected cells and number of amastigotes per cell. The 50% inhibitory concentration (IC50) was calculated using the infectivity index (II) described by Ceole et al.. DMSO (1%) treatment served as negative control and benznidazole treatment served as positive control.
(§1) The 50% cytotoxic concentration (CC50), x % inhibitory concentration (ICx = IC25, IC50, IC75, or IC90), and 50% lethal concentration (LC50) values were obtained from the percentage of inhibition/death versus log concentration of each compound, by nonlinear regression with variable slope and automatic withdrawal of outliers with ROUT coefficient (Q = 5). […] Graphpad Prism software version 7.04 was used for all regressions.

[5] = Cytotoxicity assay (MTT); type: cell-based; conditions: African green monkey (Cercopithecus aethiops), Vero cells (CCL-81); for CC50 at 4 h: 4 h of treatment, read-out: Vero cells (CCL-81) CC50 - 4h (CI); for CC50 at 24 h: 24 hours of treatment, confidence interval in brackets, read-out: Vero cells (CCL-81) CC50 (CI)
Experimental: Vero cells (CCL-81) isolated from the kidney of the African green monkey Cercopithecus aethiops were purchased from ATCC® (Washington DC, USA). The cells were inoculated in 200 μL of Dulbecco’s modified Eagle (DMEM) medium in 96-well plates at a concentration of 2 × 10^4 cells/well and incubated at 37°C for 24 h for adherence of the cells. Six different concentrations of the compounds (12 to 900 μM for butanolides, and 200 to 1,600 μM for benznidazole) were added to the wells. After 4 or 24 h of treatment, the cells were washed and cell viability was assessed using MTT (3-(4,5-Dimethylthiazol-2-yl)-2,5-Diphenyltetrazolium Bromide) assay (2 mg/mL). After 4 h of incubation at 37°C in a CO2 atmosphere, the wells were washed and 100% DMSO was added to solubilize the formazan crystals. The absorbance was measured at 570 nm using an ELISA plate reader (Biotek Model EL-800, VT, USA). DMSO (1%) treatment served as negative control and benznidazole treatment served as positive control.
as §1

[6] = system: epimastigotes of T. cruzi (Dm28c, TcI); experiment: Epimastigote cell viability assay (MTS/PMS), Dm28c; type: cell-based, Trypanosoma cruzi; conditions: for IC50: Trypanosoma cruzi, read-out: Epimastigotes (Dm28c) IC50 - 4h (CI); for activity at concentrations below 50 μg/mL in epimastigotes: 72 h of treatment, Dm28c; for SI (selectivity index): Vero CC50 4 h versus epimastigote Dm28c IC50 4 h
Experimental: (§2) Epimastigote forms of three strains of T. cruzi, including Dm28c (TcI), CL Brener (TcVI), and Y strain (TcII), were maintained in liver infusion tryptose (LIT) medium supplemented with 10% fetal bovine serum at 28°C [16] were kindly provided by Oswaldo Cruz Institute/Fiocruz. For the experiments, exponential phase cultures were used. All assays were performed in triplicates in 96-well plates.
The effect of the isolated compounds on the viability of epimastigote forms of Dm28c strain was determined by MTS [3-(4,5-dimethylthiazol-2-yl)-5-(3-carboxymethoxyphenyl)-2-(4-sulfophenyl)-2H-tetrazolium bromide] with PMS (5-methyl-phenazinium methyl sulfate) colorimetric assay, as described by Nunes et al.. […]
(§3) The absorbance of the formazan was measured at 490 nm using a microplate reader (Asys Expert Plus -Biochrom). In parallel, we determined the effect of 1% DMSO (negative control) and benznidazole (positive control) on the viability of epimastigotes and a replicate of each treatment was performed by fixing the epimastigotes with 4% paraformaldehyde prior to the addition of MTS/PMS (basal absorbance control).
as §1

[7] = system: epimastigote forms of CL Brener (TcVI); experiment: Epimastigote cell viability assay (MTS/PMS), CL Brener; type: cell-based, Trypanosoma cruzi; conditions: for IC50: Trypanosoma cruzi, 4 h of treatment, read-out: IC50 epimastigotes strain CL Brener
Experimental: as §2, §3, §1

[8] = system: epimastigote forms of Y strain (TcII); experiment: Epimastigote cell viability assay (MTS/PMS), Y strain; type: cell-based, Trypanosoma cruzi; conditions: for IC50: Trypanosoma cruzi, 4 h of treatment, read-out: IC50 epimastigotes strain Y
Experimental: as §2, §3, §1

[9] = system: trypomastigote forms of the parasite (Dm28c); experiment: microbe, parasite or virus in culture; type: cell-based; conditions: for LC50: Trypanosoma cruzi, 4 h of treatment, read-out: LC50 against trypomastigote forms (Dm28c); for SI (selectivity index): trypomastigotes Dm28c, 4 h, Vero cells
Experimental: Cell-derived trypomastigotes (Dm28c) were obtained from the supernatant of infected Vero cell cultures. Vero cells (9 × 10^5 cells/mL) and trypomastigotes were seeded at a ratio of 1:10 into culture bottles (75 cm^2) containing DMEM. After 4 h of incubation, the bottles were washed to remove unadhered trypomastigotes and incubated for another 96 h under CO2 atmosphere at 37°C. After 96 h of incubation, new trypomastigote forms were collected from the supernatant and used to perform the assays.
The lysis assay was performed in 96-well plates in technical triplicates (4 concentrations within the range 4–250 μM for butanolides and 200–1,600 μM for benznidazole), and the trypomastigotes (1 x 10^6 parasites/well) were incubated in 200 μL of DMEM (supplemented with 10% FBS, 100 μg/mL streptomycin, and 100 IU/mL penicillin) with the compounds at 37°C for 4 h. The test, negative control (1% DMSO), and positive control (benznidazole) parasites were fixed and counted in Neubauer's chamber.
as §1

[10] = system: epimastigote forms of strain Dm28c; experiment: Inhibition of metacyclogenesis; type: cell-based; conditions: Trypanosoma cruzi, 2 h exposure, then 72 h in drug-free medium, p = 0.009, read-out: less trypomastigotes than control (inhibition of metacyclogenesis)
Experimental: After the stress, the cells were washed and incubated with TAU drug-free supplemented with 10 mM L-proline, 50 mM L-sodium glutamate, 2 mM L-sodium aspartate and 10 mM D-glucose (TAU3AAG medium) for 72 h. The total number of differentiated trypomastigotes was counted in Neubauer's chamber to assess the inhibition percentage.

[11] = system: trypomastigotes infecting Vero cells; experiment: Infectivity assay (treatment before or during infection of Vero cells); type: cell-based, Trypanosoma cruzi
Experimental: The trypomastigotes were treated with isoobtusilactone A (LC50/4 h of trypomastigotes) for 4 h, while the control trypomastigotes were incubated with drug-free medium for 4 h. These trypomastigotes were then seeded into 96-well plates (4 × 10^4 parasites per well) with already adhered Vero cells at a ratio of 10 parasites per host cell.
After 20 h of infection, the infected Vero cell culture with intracellular amastigotes was fixed, stained with DAPI, photographed, and analyzed as described for antiproliferative assay.
Already adhered Vero cells were incubated with recently collected trypomastigotes for 4 h in a medium containing isoobtusilactone A (LC50/4 h of amastigotes) or in a drug-free medium (negative control). After 4 h, the host cells were washed and drug-free fresh medium was added. The cells were incubated for another 20 h and then fixed, stained, photographed, and analyzed as described above.

[12] = system: amastigotes and trypomastigotes; experiment: Ultrastructural analysis by transmission and scanning electron microscopy; type: cell-based, Trypanosoma cruzi
Experimental: Trypomastigotes were incubated with isoobtusilactone A (LC50/4 h of trypomastigote) for 2 h. The parasites were washed with cacodylate buffer (0.1 M) and fixed in cacodylate buffer (0.1 M) containing paraformaldehyde (4%) and glutaraldehyde (2.5%). The cells were then adhered to glass cover slips previously coated with poly-L-lysine, postfixed with osmium tetroxide (1%), dehydrated with graded ethanol series, and dried using a critical point dryer (Leica CPD 300). Finally, the samples were coated with a layer of gold in a sputtering device (Leica EM ACE 200).
The cells were fixed, dehydrated, and dried following the same procedure described above. Cell membrane of the host cells was randomly removed with the aid of an adhesive tape and the resulting samples were coated with a layer of gold in a sputtering device (Leica EM ACE 200).
Trypomastigotes were treated following the same procedure as described for scanning microscopy. After treatment, the cells were washed with cacodylate buffer (0.1 M) and fixed in cacodylate buffer (0.1 M) containing paraformaldehyde (4%) and glutaraldehyde (2.5%).
All samples were postfixed in osmium tetroxide (1%), dehydrated with acetone series, and embedded in EMbed 812® resin. […]

[13] = system: amastigotes of T. cruzi (Dm28c); parameters: method as in PMID 32327956; conditions: 24 h of treatment; cited from earlier work
[14] = system: Vero cells (CCL-81); parameters: method as in Nunes et al., 2020; conditions: 24 hours of treatment; confidence interval in brackets; ref Nunes et al., 2020; read-out: Vero cells (CCL-81) CC50 (CI); cited from earlier work
[15] = system: Hep G2 cells; parameters: method as in PMID 22400995, PMID 18489163, PMID 17321026; conditions: cited from earlier work
[16] = system: epimastigotes of T. cruzi (Dm28c, TcI); parameters: method as in PMID 32327956; conditions: 24 h of treatment; read-out: IC50 epimastigote forms of Dm28c strain; cited from earlier work
[17] = system: trypomastigotes; conditions: concentration greater than 40 μM, exposure time of 18 hours; cited from earlier work
[18] = Vero CC50 versus amastigote IC50, 24 hours
[19] = 4 h of treatment, Na = not active
[20] = treatment simultaneous to the infection, LC50/4 h of amastigote (20.75 μM)
[21] = trypomastigotes treated before infection, LC50/4 h of trypomastigote

## isolinderanolide D
[1]
  IC50: 12.9 µM
[2]
  IC50: 25.3 µM

## CC(C)=CCCC(C)=CC=O (mixture of isomers) [Citral]
[3]; 30 μg/mL
  inhibition of metacyclogenesis: 54%

## O=C(Cn1ccnc1[N+](=O)[O-])NCc1ccccc1 [Benznidazole, benznidazole, reference compound]
[4]
  IC50: 6.57 µM
[4]; [18]
  SI (selectivity index): 174
[5]
  CC50 at 4 h: > 1600 µM
  CC50 at 24 h: 1140 µM
[6]; [19]
  IC50: > 1600 µM
[7]
  IC50: > 1600 µM
[8]
  IC50: > 1600 µM

## C=C1OC(=O)/C(=C\CCCCCCCCCCCCCCC)[C@H]1O [isolinderanolide E]
[1]
  IC50: 29.9 µM
[2]
  IC50: 10.1 µM

## C=C1OC(=O)/C(=C/CCCCCCCCCCCCC)[C@@H]1O [Isoobtusilactone A, isoobtusilactone A]
[4]
  IC50: 23 µM
[4]; [18]
  SI (selectivity index): 6.81
[4]; amastigotes, 4 h, Vero cells
  SI (selectivity index): 17.88
[5]
  CC50 at 4 h: 371 µM
[6]
  activity at concentrations below 50 μg/mL in epimastigotes: exhibited activity
  SI (selectivity index): 36.7
[6]; [19]
  IC50: 10.1 µM
[7]
  IC50: 61.7 µM
[7]; epimastigotes strain CL Brener, 4 h, Vero cells
  SI (selectivity index): 6.0
[8]
  IC50: 32.3 µM
[8]; epimastigotes strain Y, 4 h, Vero cells
  SI (selectivity index): 11.4
[9]
  LC50: 30.1 µM
  SI (selectivity index): 12.34
[10]
  inhibition at 2.75 µM: 43%
[11]; [20]
  reduction in the number of amastigotes per cell: 65%
  reduction in the number of infected cells: 43%
[11]; [21]
  reduction in the number of amastigotes per cell: ~40%
  reduction in the number of infected cells: 20%
[12]; LC50/4 h of amastigotes, 4 h
  ultrastructure of treated intracellular amastigotes (TEM): strong and acute damage to the unique mitochondria
[12]; LC50/4 h of trypomastigote, 2 h
  ultrastructure of treated trypomastigotes (TEM): swelling and loss of internal content of mitochondria
[13]
  inhibition of growth of amastigote forms: more than 70%
[14]
  CC50: 156 µM
[15]
  effect on tumor cells: inducing apoptosis

## CCCCCCCCCCCCC/C=C1\CC(CO)OC1=O (stereo not drawn) [Majoranolide, majoranolide]
[4]
  IC50: 21.9 µM
[4]; [18]
  SI (selectivity index): 7.57
[5]
  CC50 at 4 h: 558 µM
  CC50 at 24 h: 166 µM
[6]
  activity at concentrations below 50 μg/mL in epimastigotes: exhibited activity
  SI (selectivity index): 0.94
[6]; [19]
  IC50: > 250 µM
[9]
  LC50: 71.7 µM
  SI (selectivity index): 7.77

## CCCCCCCCCCCCC/C=C1\C(=O)O[C@@H](C)[C@H]1O [Epilitsenolide C1, epilitsenolide C1]
[6]; [19]
  Epimastigotes (Dm28c) IC50 - 4h (CI): did not show activity
[6]
  activity at concentrations below 50 μg/mL in epimastigotes: exhibited activity
[16]
  IC50: 7.77 µM

## CCCCCCCCCCCCCCC/C=C(/C(=O)OC)[C@H](O)C(C)=O [secosubamolide A]
[1]
  IC50: 12.5 µM
[2]
  IC50: 12.3 µM

## Oc1ccc(/C=C/c2cc(O)cc(O)c2)cc1 [resveratrol]
[17]
  reduction of infection: by half

## CC(C)[C@H](NC(=O)OCc1ccccc1)C(=O)N[C@H](C=O)Cc1ccccc1 [MDL28170] (Cbz-Val-Phe-aldehyde)
[3]; 50 μM, 96-hour treatment
  inhibition of differentiation: ~50%
